Assay results published in patent US10633351B2, “Halogenated compound and axially chiral isomer thereof” (MEDSHINE DISCOVERY INC., priority 2016, dated 2020).
Where two headings read alike, the source gives them in different places. One block for each molecule: values may come before it.

How the values were obtained:
[1] = hepatocyte, rat; cited from earlier work
[2] = liver microsome, monkey; cited from earlier work
[3] = human, 0-144 h, after Lesinurad, cited from earlier work
[4] = hepatocyte, dog; cited from earlier work
URAT-1 = biological target: T1, URAT-1 (Homo sapiens, UniProt Q96S37); assay: Inhibition of 14C-labelled uric acid transport in MDCK cell line stably transfected with the URAT-1 gene; assay type: cell-based; conditions: for IC50: MDCK cells stably transfected with URAT-1, 14C uric acid 50 uM, read-out: IC50 against URAT-1
T1 construct: expressed in transfected cells; host or cells: MDCK
T1 sequence (Q96S37 1-553): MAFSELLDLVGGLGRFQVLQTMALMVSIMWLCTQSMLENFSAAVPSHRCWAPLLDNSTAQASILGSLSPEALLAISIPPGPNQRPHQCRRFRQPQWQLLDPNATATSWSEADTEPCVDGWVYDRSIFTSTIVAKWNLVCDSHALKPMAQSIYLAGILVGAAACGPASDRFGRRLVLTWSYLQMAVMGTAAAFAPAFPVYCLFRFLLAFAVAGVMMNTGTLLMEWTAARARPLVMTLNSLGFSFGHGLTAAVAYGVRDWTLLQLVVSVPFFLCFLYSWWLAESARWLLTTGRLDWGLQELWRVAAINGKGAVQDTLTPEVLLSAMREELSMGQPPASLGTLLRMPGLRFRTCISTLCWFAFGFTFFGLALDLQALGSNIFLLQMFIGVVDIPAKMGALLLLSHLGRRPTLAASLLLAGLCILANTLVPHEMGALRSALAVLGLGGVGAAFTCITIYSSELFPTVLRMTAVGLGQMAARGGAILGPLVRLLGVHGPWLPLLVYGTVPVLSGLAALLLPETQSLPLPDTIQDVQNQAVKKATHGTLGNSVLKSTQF
From the text: The inventors examined the ability of these compounds to inhibit the transport of labeled uric acid by MDCK cell lines stably transfected with the human URAT1 gene.
Determination of the IC50 value of the inhibitory activity of the compound against uric acid reabsorption by the MDCK cell line stably transfected with the URAT-1 (uric acid transporter) gene.
URAT-1 (MDCK) cell line: the MDCK cell line stably transfected with the URAT-1 gene
Cell culture medium: MEM culture medium added 10% fetal bovine serum (FBS), 1% sodium pyruvate and 250 ug/ml G418.
4) cells were diluted to 2.5×10^5/mL with the culture medium, and the diluted cells were added into a rat tail collagen-coated 24-well plate (800 uL/well, 2×10^5 cells/well). The plate was incubated overnight at 37° C. in a 5% CO2 incubator.
1) cells were seeded into 24-well plate, and supernatant was discarded after 16-18 h. The cells were washed twice using 600 ul HBSS buffer.
2) HBSS buffer was removed and 180 ul of HBSS buffer was added into each well again.
1) powder of compounds was dissolved into 100% DMSO, and diluted into 6 concentration points by 3-fold dilution, or into 2 concentration points by 10-fold dilution, and the highest starting concentration was 50 mM.
2) 5 ul DMSO solution in step 1) was transferred into 120 ul of HBSS buffer to make a 25-fold dilution.
3) 10 ul diluted solution in step 2) was added into 24-well plate, and the plate was incubated for 15 min at 37° C. in a 5% CO2 incubator. The final concentration of DMSO was 0.2%. The control well contained 0.2% DMSO without compound.
^14C-labelled uric acid was diluted and added into plate, and the final concentration was 50 uM. The plate was incubated for 10 min at 37° C. in a 5% CO2 incubator. After supernatant was discarded, cells were washed with HBSS buffer twice. Cells was lysed with 0.1M NaOH. And then cell lysis solution was collected into liquid scintillation tube and added with liquid scintillation solution. The signal was read by liquid scintillation counter Tri-Carb.
URAT-1 inhibition by the treatment of the compounds was analyzed by calculating the percentage of inhibition according to […] data. Non-linear curve fitting analysis on the percent inhibition (inh %) data using GraphPad Prism software generate the IC50 value.

[5] = Metabolite identification after 120 min incubation in human hepatocytes (LC-UV-MSn); assay type: in vitro ADME; conditions: for metabolites detected: human hepatocyte metabolism, same condition as (±)-Lesinurad; for Percentage of ultraviolet area: human hepatocytes, 10 μM, 120 min
Procedure: The purpose of this experiment was to confirm the metabolites of a series of compounds after incubation for 120 minutes in human hepatocytes using LC-UV-MS^n (n=1-2) detection. MS and MS^2 data were analyzed using MetaboLynx™ software after data collection.
Alter incubating the sample for 2 h, the protein was precipitated by using acetonitrile containing 01.% formic acid, centrifuged, and the supernatant was taken out and dried an under nitrogen, and dissolved and then injected for analysis.

[6] = Pharmacokinetics in SD rats after IV and PO administration; assay type: in vivo; conditions: rat; for MRT inf: read-out: Detention time MRT0-inf; for half-life: read-out: Half-life T1/2 (converted); for C0: read-out: Starting concentration C0; for bioavailability: read-out: Bioavailability F; for Cmax: read-out: Peak concentration Cmax
Procedure: Drug concentrations in plasma of (−)-WX001 and (+)-WX002 were measured by LC/MS/MS method at different times after SD rats as tested animals were administered (−)-WX001 and (+)-WX002 by IV (intravenous injection) and PO (gavage), and the pharmacokinetic behavior of the compound in the present invention in rats was investigated, and its pharmacokinetic characteristics were evaluated.
12 healthy adult male SD rats were divided into 4 groups (each compound contained IV and PO group), 3 rats per group. SD rats were purchased from Shanghai Slac Laboratory Animal CO.LTD, whose animal production license number was SCXK (Shanghai) 2012-0002.
The appropriate amount of the sample was weighed, added a certain amount of DMSO and ultrasonic dissolved, and then was added 20% hydroxypropyl-β-cyclodextrin solution to give tested compound which was 1 mg/mL 5% DMSO/95% 20% HPCD clear solution used for IV and PO administration.
12 SD rats were divided into 4 groups and there were 3 male rats in each group, and administrated by IV, PO, respectively after fasting overnight. The dose of IV was 2 mg/kg and administration volume was 2 mL/kg; the dose of PO was 10 mg/kg and administration volume was 10 mL/kg.
In group of IV, about 200 μL of blood was collected at 0.083, 0.25, 0.5, 1, 2, 4, 6, 8, 24 hour after administration, placed in an anticoagulant tube of K2-EDTA, centrifuged at 3000 rpm for 15 minutes, and then plasma was separated and stored at −80° C. In group of PO, blood was collected at 0.25, 0.5, 1, 2, 4, 6, 8, 24 hour after administration, and the other operations were the same as the group of IV. The plasma samples were pretreated through precipitated protein and the plasma concentration was determined by LC/MS/MS method. A linear range of the analytical method was 4.00-6000 nM.

[7] = liver microsome, human; cited from earlier work
[8] = hepatocyte, human; cited from earlier work
[9] = liver microsome, dog; cited from earlier work
[10] = hepatocyte, monkey; cited from earlier work
[11] = liver microsome, rat; cited from earlier work
[12] = male, SD, plasma, iv, 2 mg/kg, IV 2 mpk
[13] = male, SD, plasma, po, 10 mg/kg, PO 10 mpk

SMILES: O=C(O)CSc1nnc(Br)n1-c1ccc(C2(O)CC2)c2ccccc12 [Compound M3]
amount of metabolite / parent found (Total 100) [1]: not detected | amount of metabolite / parent found (Total 100) [2]: 7.9 | Percentage of administered dose ([3]; Feces): 0.3% | Percentage of administered dose ([3]; Urine): 12.0% | amount of metabolite / parent found (Total 100) [4]: not detected

IC50 (URAT-1): 1.4 µM
SMILES: CC(C)(Sc1nnc(Br)n1-c1c(Cl)cc(C2CC2)c2ccccc12)C(=O)O (single isomer, unassigned) [(+)-WX005]
inhibitory activity against URAT-1 compared with reference (±)-Lesinurad (URAT-1; URAT1 MDCK cells): significantly improved inhibitory activity

metabolites detected [5]: no metabolites were detected | Percentage of ultraviolet area [5]: 100% | IC50 (URAT-1): 8 µM | fold inhibitory activity in vitro compared to the other isomer (+)-WX002 (URAT-1; URAT1 MDCK cells): more than 3 fold | Tmax ([6]; male, SD, plasma, 10 mg/kg, PO 10 mpk, read-out: Peak time Tmax): 1.67 h | AUC(0-inf) ([6]; male, SD, plasma, iv, 2 mg/kg, IV 2 mpk, read-out: Area under curve AUC0-inf): 33 µM·h | clearance ([6]; male, SD, plasma, iv, 2 mg/kg, IV 2 mpk, read-out: Clearance rate Cl): 2.31 mL/min/kg | MRT inf [6, 12]: 4.4 h | half-life [6, 12]: 2.86 h | C0 [6, 12]: 11.7 µM | Vd ([6]; male, SD, plasma, iv, 2 mg/kg, IV 2 mpk, read-out: apparent volume of distribution Vdss): 0.61 L/kg | bioavailability [6, 13]: 94% | MRT inf [6, 13]: 7.18 h | half-life [6, 13]: 4.86 h | Cmax [6, 13]: 20.6 µM | Area under curve AUC0-inf ([6]; PO 10 mpk, 10 mg/kg): 154.895 µM·h
SMILES: O=C(O)CSc1nnc(Br)n1-c1c(Cl)cc(C2CC2)c2ccccc12 (single isomer, unassigned) [(−)-WX001]
inhibitory activity against URAT-1 compared with reference (±)-Lesinurad (URAT-1; URAT1 MDCK cells): significantly improved inhibitory activity

IC50 (URAT-1): 10.4 µM
SMILES: O=C(O)CSc1nnc(Br)n1-c1c(Cl)cc(C2CC2)c2ccccc12 (racemic) [(±)-WX003]

metabolites detected [5]: no metabolites were detected | Percentage of ultraviolet area [5]: 100% | IC50 (URAT-1): > 20 µM | Area under curve AUC0-inf ([6]; IV 2 mpk, 2 mg/kg): 16.775 µM·h | Clearance rate Cl ([6]; IV 2 mpk, 2 mg/kg): 4.56 mL/min/kg | Detention time MRT0-inf ([6]; IV 2 mpk, 2 mg/kg): 3.58 h | Half-life T1/2 ([6]; IV 2 mpk, 2 mg/kg): 3.51 h | apparent volume of distribution Vdss ([6]; IV 2 mpk, 2 mg/kg): 0.97 L/kg | C0 ([6]; IV 2 mpk, 2 mg/kg): 12.9 µM | Peak time Tmax ([6]; PO 10 mpk): 1.67 h | Area under curve AUC0-inf ([6]; PO 10 mpk, 10 mg/kg): 77.436 µM·h | Bioavailability F ([6]; PO 10 mpk, 10 mg/kg): 76% | Detention time MRT0-inf ([6]; PO 10 mpk, 10 mg/kg): 4.82 h | Half-life T1/2 ([6]; PO 10 mpk, 10 mg/kg): 2.68 h | Cmax ([6]; PO 10 mpk, 10 mg/kg): 12 µM
SMILES: O=C(O)CSc1nnc(Br)n1-c1c(Cl)cc(C2CC2)c2ccccc12 (single isomer, unassigned) [(+)-WX002]
inhibitory activity against URAT-1 compared with reference (±)-Lesinurad (URAT-1; URAT1 MDCK cells): significantly improved inhibitory activity

SMILES: O=C(O)CSc1nncn1-c1ccc(C2(O)CC2)c2ccccc12 [Compound M5]
Percentage of administered dose ([3]; Feces): 3.6%

SMILES: O=C(O)CSc1nnc(Br)n1-c1ccc(C2CC2)c2c1C=CC(O)C2O (stereo not drawn) [Compound M4]
amount of metabolite / parent found (Total 100) [1]: not detected | Percentage of administered dose ([3]; Feces): 5.0% | Percentage of administered dose ([3]; Urine): 15.7% | amount of metabolite / parent found (Total 100) [4]: not detected

IC50 (URAT-1): 1.1 µM
SMILES: CC(C)(Sc1nnc(Br)n1-c1c(Cl)cc(C2CC2)c2ccccc12)C(=O)O (single isomer, unassigned) [(−)-WX004]
inhibitory activity against URAT-1 compared with reference (±)-Lesinurad (URAT-1; URAT1 MDCK cells): significantly improved inhibitory activity

Percentage of ultraviolet area [5]: 95.60% | bioavailability [6, 13]: 84% | Area under curve AUC0-inf ([6]; IV 2 mpk): 14.823 µM·h | C0 ([6]; IV 2 mpk): 11.6 µM | Area under curve AUC0-inf ([6]; PO 10 mpk): 62.491 µM·h | Cmax ([6]; PO 10 mpk): 14.5 µM
SMILES: O=C(O)CSc1nnc(Br)n1-c1ccc(C2CC2)c2ccccc12 (racemic) [(±)-Lesinurad, Lesinurad, reference compound]
amount of metabolite / parent found (Total 100) [7]: 100 | amount of metabolite / parent found (Total 100) [8]: 92.1 | amount of metabolite / parent found (Total 100) [9]: 100 | amount of metabolite / parent found (Total 100) [1]: 100 | amount of metabolite / parent found (Total 100) [2]: 92.1 | Percentage of administered dose ([3]; Feces): 1.5% | Percentage of administered dose ([3]; Urine): 31.3% | amount of metabolite / parent found (Total 100) [10]: 98.1 | amount of metabolite / parent found (Total 100) [4]: 100 | amount of metabolite / parent found (Total 100) [11]: 100

SMILES: O=C(O)CSc1nncn1-c1ccc(C2CC2)c2ccccc12 [Compound M2]
Percentage of administered dose ([3]; Feces): 4.8% | Percentage of administered dose ([3]; Urine): 0.3%
